Source: article PMC9323132, “Characterization of Two Dehydrogenases from Gluconobacter oxydans Involved in the Transformation of Patulin to Ascladiol” (Toxins, 2022)

Legend:
[1] = target: T1, GOX0525 (Gluconobacter oxydans, UniProt Q5FTJ3); test: NADPH oxidation at […] nm, Michaelis-Menten fit; assay type: biochemical; settings: read-out: apparent KM; 250 µM NADPH; pH 6.0 (0.1 M Tris, 0.05 M MES, 0.05 M acetic acid); 25 °C
T1 construct: full-length, N-terminal His-tag (pET28a), E. coli LOBSTR-BL21 (DE3), Ni-NTA; about 29 kDa; native N-terminus by primer MTHRVAL

[2] = target: T2, GOX0716 (Gluconobacter oxydans, UniProt Q5FT03); test: HPLC of E-ascladiol formation by recombinant E. coli cells; assay type: cell-based, recombinant Escherichia coli; settings: 10 µg/mL patulin; 500 µM NADPH; 20 mM MES pH 5; 30 °C; 24 h
T2 construct: full-length in pET28a, whole E. coli LOBSTR-BL21 (DE3) cells; not purified; native N-terminus by primer MADHSI

[3] = target: T3, GOX1462 (Gluconobacter oxydans, UniProt Q5FQY5); test: as above; assay type: cell-based, Escherichia coli; settings: 10 µg/mL patulin; 500 µM NADPH; 20 mM MES pH 5; 30 °C; 24 h
T3 construct: full-length in pET28a, whole E. coli LOBSTR-BL21 (DE3) cells; not purified (aggregated); native N-terminus by primer MQYRQLG

[4] = target: T4, GOX1899 (Gluconobacter oxydans, UniProt Q5FPQ9); test: NADPH oxidation at […] nm, Michaelis-Menten fit; assay type: biochemical; settings: read-out: apparent KM; 250 µM NADPH; pH 6.0 (0.1 M Tris, 0.05 M MES, 0.05 M acetic acid); 25 °C
T4 construct: full-length, N-terminal His-tag (pET28a), E. coli LOBSTR-BL21 (DE3), Ni-NTA; about 29 kDa; native N-terminus by primer MTTDNI
T4 sequence (Q5FPQ9 entry or part of it): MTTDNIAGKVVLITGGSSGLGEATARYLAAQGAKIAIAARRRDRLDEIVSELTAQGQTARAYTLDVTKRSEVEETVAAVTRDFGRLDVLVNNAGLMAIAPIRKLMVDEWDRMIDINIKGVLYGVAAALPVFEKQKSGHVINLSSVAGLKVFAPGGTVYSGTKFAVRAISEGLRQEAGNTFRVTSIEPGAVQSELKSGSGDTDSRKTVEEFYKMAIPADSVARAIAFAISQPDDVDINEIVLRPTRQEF

T3 sequence (Q5FQY5 entry or part of it): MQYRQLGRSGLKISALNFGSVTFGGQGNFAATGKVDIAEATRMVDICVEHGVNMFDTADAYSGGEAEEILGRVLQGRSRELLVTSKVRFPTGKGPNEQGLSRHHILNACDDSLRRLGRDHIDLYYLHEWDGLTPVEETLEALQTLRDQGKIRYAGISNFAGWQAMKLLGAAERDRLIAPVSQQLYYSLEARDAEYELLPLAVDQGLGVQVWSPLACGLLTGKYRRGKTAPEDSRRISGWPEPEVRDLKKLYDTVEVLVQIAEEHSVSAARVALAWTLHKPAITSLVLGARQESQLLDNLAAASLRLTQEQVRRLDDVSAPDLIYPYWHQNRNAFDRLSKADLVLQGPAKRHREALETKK
T2 sequence (Q5FT03 entry or part of it): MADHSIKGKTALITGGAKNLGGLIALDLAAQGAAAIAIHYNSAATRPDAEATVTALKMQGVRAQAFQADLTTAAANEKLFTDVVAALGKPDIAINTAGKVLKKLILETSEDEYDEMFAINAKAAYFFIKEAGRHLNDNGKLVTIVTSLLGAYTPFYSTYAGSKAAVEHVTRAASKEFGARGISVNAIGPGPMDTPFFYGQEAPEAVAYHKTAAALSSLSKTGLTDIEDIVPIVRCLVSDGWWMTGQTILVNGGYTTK
T1 sequence (Q5FTJ3 entry or part of it): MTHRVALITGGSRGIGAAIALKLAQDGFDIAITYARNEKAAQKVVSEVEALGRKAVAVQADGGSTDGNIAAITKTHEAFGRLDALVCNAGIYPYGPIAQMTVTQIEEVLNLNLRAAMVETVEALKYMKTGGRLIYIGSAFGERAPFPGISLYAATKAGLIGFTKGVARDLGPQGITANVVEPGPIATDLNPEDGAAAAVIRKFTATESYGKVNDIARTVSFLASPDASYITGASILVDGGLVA

SMILES: O=C1C=C2C(=CCOC2O)O1 (stereo not shown) [patulin, 4-hydroxy-4H-furo [3,2-c]pyran-2(6H)-one]
- Km [1]: 8.64 ± 0.89 mM
- HPLC of E-ascladiol formation by recombinant E. coli cells [2]: capable of producing E-ascladiol were those containing GOX0525, GOX1899, GOX1462 and GOX0716
- HPLC of E-ascladiol formation by recombinant E. coli cells [3]: capable of producing E-ascladiol were those containing GOX0525, GOX1899, GOX1462 and GOX0716
- Km [4]: 7.26 ± 0.54 mM
